According to BindingDB's records for doi:10.1016/j.bioorg.2015.09.008 (Gc University, 2015):

How the values were obtained:
Alpha-glucosidase MAL12 = Alpha-glucosidase MAL12 (Saccharomyces cerevisiae (strain ATCC 204508 / S288c), UniProt P53341); assay: α-Glucosidase Assay; details: pH 6.8
Experimental: The α-glucosidase inhibition activity was performed with slight modifications according to method. […] Thecontents were mixed, preincubated for 10 min at 37 °C and preread at 400 nm. The reaction was initiated by the addition of 10 µL of 0.5 mM substrate (p-nitrophenyl glucopyranoside, Sigma Inc.). After 30 min of incubation at 37 °C, absorbance of the yellow color produced due to the formation of p-nitrophenol was measured at 400 nm using Synergy HT (BioTek, USA) 96-well microplate reader. Acarbose was used as positive control.

Cholinesterase = Cholinesterase (Homo sapiens, UniProt P06276); assay: AChE and BChE Assay; details: pH 7.7
Experimental: (§1) The AChE inhibition assay was performed according to the Ellman's method. Total volume of 100 µL reaction mixture contained 60 µL 50 mM Na2HPO4 buffer, pH 7.7. Ten µL test compound (0.5 mM well#1) was added, followed by the addition of10 µL (0.005 unit well#1 AChE, 0.5 unit well#1 BChE, Sigma Inc.) enzyme. […] The reaction was initiated by the addition of 10 µL of 0.5 mM well#1 substrate (acetylthiocholine iodide or butyrylthiocholine chloride, Sigma Inc.), followed bythe addition of 10 µL DTNB from Sigma Inc. (0.5 mM well#1). After 15 min of incubation at 37 °C, absorbance was measured using 96-well plate reader Synergy HT, Biotek, USA. All experiments were carried out with their respective controls in triplicate.

Acetylcholinesterase = Acetylcholinesterase (Electrophorus electricus, UniProt O42275); assay: AChE and BChE Assay; details: pH 7.7
Experimental: as §1

Chain of Alpha-glucosidase MAL12 (P53341 whole entry): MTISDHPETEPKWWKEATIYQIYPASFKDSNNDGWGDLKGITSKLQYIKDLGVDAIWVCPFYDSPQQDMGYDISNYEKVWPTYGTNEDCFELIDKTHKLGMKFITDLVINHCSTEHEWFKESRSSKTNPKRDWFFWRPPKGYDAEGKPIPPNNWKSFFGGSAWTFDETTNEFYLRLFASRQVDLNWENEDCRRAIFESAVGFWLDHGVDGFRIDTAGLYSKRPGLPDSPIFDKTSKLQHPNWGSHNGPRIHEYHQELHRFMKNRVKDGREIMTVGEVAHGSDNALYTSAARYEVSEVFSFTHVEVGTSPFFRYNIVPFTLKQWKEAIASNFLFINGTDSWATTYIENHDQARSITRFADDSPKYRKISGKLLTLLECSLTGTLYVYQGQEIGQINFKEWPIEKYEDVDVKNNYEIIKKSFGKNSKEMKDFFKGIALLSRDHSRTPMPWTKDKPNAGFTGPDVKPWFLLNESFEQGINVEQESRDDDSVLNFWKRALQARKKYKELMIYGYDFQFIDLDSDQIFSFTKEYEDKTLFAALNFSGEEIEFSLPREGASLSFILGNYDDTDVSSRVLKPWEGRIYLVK
Chain of Acetylcholinesterase (O42275 whole entry): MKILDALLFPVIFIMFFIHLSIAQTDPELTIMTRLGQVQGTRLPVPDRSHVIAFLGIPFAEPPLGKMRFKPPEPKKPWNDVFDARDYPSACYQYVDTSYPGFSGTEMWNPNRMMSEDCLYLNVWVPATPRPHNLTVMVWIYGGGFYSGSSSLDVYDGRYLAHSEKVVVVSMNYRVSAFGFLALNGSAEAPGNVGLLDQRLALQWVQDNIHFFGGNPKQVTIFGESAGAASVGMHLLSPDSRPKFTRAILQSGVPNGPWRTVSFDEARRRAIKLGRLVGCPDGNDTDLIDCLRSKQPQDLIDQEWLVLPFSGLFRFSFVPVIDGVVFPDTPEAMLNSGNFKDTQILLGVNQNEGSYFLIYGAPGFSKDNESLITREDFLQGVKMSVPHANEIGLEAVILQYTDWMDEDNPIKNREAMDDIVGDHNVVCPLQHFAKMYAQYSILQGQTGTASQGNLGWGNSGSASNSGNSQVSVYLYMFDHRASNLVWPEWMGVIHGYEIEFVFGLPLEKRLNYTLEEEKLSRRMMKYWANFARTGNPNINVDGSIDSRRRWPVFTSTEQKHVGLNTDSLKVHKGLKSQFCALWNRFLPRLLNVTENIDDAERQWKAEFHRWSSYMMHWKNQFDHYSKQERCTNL
Chain of Cholinesterase (P06276 whole entry): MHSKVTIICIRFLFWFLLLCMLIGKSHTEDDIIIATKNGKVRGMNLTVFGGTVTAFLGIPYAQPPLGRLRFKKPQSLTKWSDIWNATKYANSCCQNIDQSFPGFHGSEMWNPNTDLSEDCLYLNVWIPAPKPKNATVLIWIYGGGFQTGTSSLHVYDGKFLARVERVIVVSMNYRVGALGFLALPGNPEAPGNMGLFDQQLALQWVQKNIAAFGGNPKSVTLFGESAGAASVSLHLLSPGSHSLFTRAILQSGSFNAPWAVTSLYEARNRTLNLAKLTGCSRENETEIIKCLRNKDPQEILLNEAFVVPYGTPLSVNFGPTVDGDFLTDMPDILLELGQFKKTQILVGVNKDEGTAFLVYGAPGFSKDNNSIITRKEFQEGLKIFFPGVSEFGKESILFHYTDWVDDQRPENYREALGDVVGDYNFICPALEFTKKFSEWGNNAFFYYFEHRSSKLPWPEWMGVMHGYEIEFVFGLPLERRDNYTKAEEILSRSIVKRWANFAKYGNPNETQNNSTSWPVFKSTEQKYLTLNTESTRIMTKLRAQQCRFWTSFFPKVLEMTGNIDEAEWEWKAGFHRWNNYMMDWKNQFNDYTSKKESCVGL

Row | IC50 (Alpha-glucosidase MAL12) | Compound | IC50 (Cholinesterase) | IC50 (Acetylcholinesterase)
1 | 26.8 µM | O=C(NNS(=O)(=O)c1ccc(Br)cc1)c1cc(C(=O)NNS(=O)(=O)c2ccc(Br)cc2)nc(C(=O)NNS(=O)(=O)c2ccc(Br)cc2)c1 [N',N'',N'''-(pyridine-2,4,6-tricarbonyl)tris(4-bromobenzenesulfonohydrazide) (4b)] |  | 
2 | 125 µM | Cc1ccc(S(=O)(=O)NNC(=O)c2cc(C(=O)NNS(=O)(=O)c3ccc(C)cc3)nc(C(=O)NNS(=O)(=O)c3ccc(C)cc3)c2)cc1 [N',N'',N'''-(pyridine-2,4,6-tricarbonyl)tris(4-methylbenzenesulfonohydrazide) (4e)] |  | 
3 |  | CS(=O)(=O)NNC(=O)c1cc(C(=O)NNS(C)(=O)=O)nc(C(=O)NNS(C)(=O)=O)c1 [N',N'',N'''-(pyridine-2,4,6-tricarbonyl)trimethanesulfonohydrazide (4g)] | 44.8 µM | 10.8 µM
4 | 25.6 µM | O=C(NNS(=O)(=O)c1ccc(F)cc1)c1cc(C(=O)NNS(=O)(=O)c2ccc(F)cc2)nc(C(=O)NNS(=O)(=O)c2ccc(F)cc2)c1 [N',N'',N'''-(pyridine-2,4,6-tricarbonyl)tris(4-fluorobenzenesulfonohydrazide (4c)] |  | 
5 |  | CCS(=O)(=O)NNC(=O)c1cc(C(=O)NNS(=O)(=O)CC)nc(C(=O)NNS(=O)(=O)CC)c1 [N',N'',N'''-(pyridine-2,4,6-tricarbonyl)triethanesulfonohydrazide (4h)] | 112 µM | 29.1 µM

Row | Compound | IC50 (Alpha-glucosidase MAL12) | IC50 (Cholinesterase) | IC50 (Acetylcholinesterase)
6 | O=C(NNS(=O)(=O)c1ccccc1)c1cc(C(=O)NNS(=O)(=O)c2ccccc2)nc(C(=O)NNS(=O)(=O)c2ccccc2)c1 [N',N'',N'''-(pyridine-2,4,6-tricarbonyl)tribenzenesulfonohydrazide (4a)] | 32.2 µM | 43.8 µM | 50.2 µM
7 | O=C(NNS(=O)(=O)c1ccc(Cl)cc1)c1cc(C(=O)NNS(=O)(=O)c2ccc(Cl)cc2)nc(C(=O)NNS(=O)(=O)c2ccc(Cl)cc2)c1 [N',N'',N'''-(pyridine-2,4,6-tricarbonyl)tris(4-chlorobenzenesulfonohydrazide (4d)] | 28.8 µM |  | 
